In patent US11207312B2, “Metallo-beta-lactamase inhibitors and methods of use thereof” (priority 2017, dated 2021):

Legend:
[1] = test system: P. aeruginosa MB9799 (efflux-, IMP-1 plasmid); assay type: cell-based, Pseudomonas aeruginosa; conditions: efflux − (MB9799) strain; imipenem at 2 μg/mL; in the presence of a class A, C, D serine β-lactamase inhibitor closely related to relebactam
Description: (§1) The strain background is Pseudomonas aeruginosa PAO1. A wild-type (M135919) and an isogenic strain in which multiple efflux pumps have been disrupted genetically were used. The MBL IMP-1, obtained from a clinical isolate was introduced into the strain pair by the following process:
(§2) The plasmid DNA was transformed into parental MB5919 (oprD+, efflux+, inducible AmpC) and MB5890 (oprD+, efflux−, inducible AmpC) isogenic strains by electroporation.
(§3) The strain set was then used as a pair to determine the effect of metallo-β-lactamase inhibitors of Formula I on the MIC of imipenem and/or ceftazidime. A fixed concentration of antibiotic is included in standard microbroth MIC tests, usually at the CLSI breakpoint concentration, A fixed amount of a class A/C beta-lactamase inhibitor is also included to inhibit the resident Pseudomonas AmpC enzyme. A serial titration of the metallo-β-lactamase inhibitor was included and the concentration of metallo-β-lactamase inhibitor which restores susceptibility of the strain to the included antibiotic was recorded. That concentration of metallo-β-lactamase inhibitor was then compared between the two strains to determine the fold difference between the efflux+(MB9798) and efflux−(MI39799) strains, which indicates the extent to which the MBLi is subject to efflux.

[2] = test system: P. aeruginosa MB9798 (efflux+, IMP-1 plasmid); conditions: for MB9798 MITC95 P. aeruginosa uM Efflux WT: efflux + (MB9798) strain, imipenem at 2 μg/mL, in the presence of a class A, C, D serine β-lactamase inhibitor closely related to relebactam; for Efflux ratio: fold difference between efflux+ (MB9798) and efflux− (MB9799) strains
Description: as §1, §2, §3

[3] = test system: Serratia marcescens expressing IMP-1 (CL5741); assay type: cell-based; conditions: with imipenem 1 μg/ml; 95% inhibition of bacterial growth
Protocol: (§4) The bacterial strains tested included the clinical strains Escherichia coil expressing NDM-1 (CLB30005, CLB30016), Serratia marcescens expressing IMP-1 (CL5741), and Klebsiella pneumoniae expressing VIM-1 (H-LMA599644). Inhibitor activity was measured in the presence and absence of imipenem in a 384-well microplate.
(§5) The clinical strains CLB30016, CL5741 and IHMA599644 were grown on trypticase soy agar containing 5% sheep's blood. The bacteria on agar plates were incubated at 35° C. with humidity overnight. The following day, individual colonies from each clinical strain were picked and resuspended in 5 ml saline to attain an OD600 of […], for CLB30016, C15741 and IHMA599644, respectively. These were further diluted 1:100 into 1.1× CAMHB and used to inoculate the test wells as described below.
(§6) Imipenem in 10 mM 3-(N-morpholino)propanesulfonic acid (MOPS, pH 7) was stored in single use aliquots at −80° C. […] On the day of the assay, 4 μl of antibiotic was added to 45 μl of bacteria followed by 1 μl of test compound and mixed by pipetting and with an orbital shaker. The concentration of antibiotic used in the assay was 1 μg/ml. Microplates were covered and incubated at 35° C. for 22 hours to 24 hours. At the end of the incubation, absorbance was determined using a spectrophotometer. The synergistic concentration of MBLI was determined by identifying the lowest concentration of test compound in the presence of a given concentration of antibiotic that was required to inhibit 95% of the growth of the bacteria. The results for Examples 1-209 are reported in Table 1, expressed as the concentration of compound that potentiated the action of antibiotic (imipenem) affecting 95% inhibition of bacterial growth (MITC95).

[4] = test system: Klebsiella pneumoniae expressing VIM-1 (IHMA599644); assay type: cell-based; conditions: with imipenem 1 μg/ml; 95% inhibition of bacterial growth
Protocol: as §4, §5, §6

[5] = test system: Escherichia coli expressing NDM-1 (CLB30016); assay type: cell-based; conditions: with imipenem 1 μg/ml; 95% inhibition of bacterial growth
Protocol: as §4, §5, §6

NDM-1 = NDM-1 (Klebsiella pneumoniae, UniProt C7C422); test: biochemical; assay type: biochemical; conditions: CCF2-FA fluorescence assay, 2 hours at 25° C.
Protocol: (§7) The Class B enzyme activities were measured in the presence of the test inhibitor in a fluorescence assay against a commercially available substrate consisting of a cephalosporin core linking 7-hydroxycoumarin to fluorescein (CCF2-FA). The enzyme (NDM-1, IMP-1 or VIM-1) and the substrate were diluted in 100 mM KH2PO4 buffer (pH 7) containing 0.005% Tween-20 and 10 μM ZnSO4. In the assay, the final concentration of enzyme was 1 pM, 2 pM and 30 pM for NDM-1, IMP-1 and VIM-1, respectively, and the final concentration of CCF2-FA was 1.25 μM. The test inhibitor was dissolved in dimethylsulfoxide and diluted 1:50 in the assay, resulting in a final concentration range of 20 μM to 0.00063 μM. In a 384-well microplate, the test inhibitor was incubated with the metallo-β-lactamase enzyme and the substrate for 2 hours at 25° C. Fluorescence at 460 nm following excitation at 405 nm was measured. The IC50 value was determined from semi-logarithmic plots of enzyme inhibition versus inhibitor concentration, with a curve generated using a 4-parameter fit.

VIM-1 = VIM-1 (Pseudomonas aeruginosa (strain ATCC 15692 / DSM 22644 / CIP 104116 / JCM 14847 / LMG 12228 / 1C / PRS 101 / PAO1), UniProt A0A0F7KYQ8); test: biochemical; conditions: CCF2-FA fluorescence assay, 2 hours at 25° C.; read-out: VIM1 IC50
Protocol: as §7

IMP-1 = IMP-1 (Serratia marcescens, UniProt P52699); test: biochemical; conditions: CCF2-FA fluorescence assay, 2 hours at 25° C.; read-out: IMP1 IC50
Protocol: as §7

VIM-2 = VIM-2 (Escherichia coli, UniProt Q5U7L7); test: biochemical; conditions: CCF2-FA fluorescence assay; read-out: VIM2 IC50

NDM-1, sequence (C7C422 whole entry, looked up, species assumed): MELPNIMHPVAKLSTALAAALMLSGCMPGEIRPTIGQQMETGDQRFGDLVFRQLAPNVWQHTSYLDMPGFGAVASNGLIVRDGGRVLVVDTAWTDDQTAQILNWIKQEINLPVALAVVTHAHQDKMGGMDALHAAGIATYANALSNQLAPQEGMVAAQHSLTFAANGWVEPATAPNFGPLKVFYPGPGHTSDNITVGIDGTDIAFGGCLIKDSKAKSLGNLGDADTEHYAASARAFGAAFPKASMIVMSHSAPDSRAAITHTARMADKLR
IMP-1, sequence (P52699 whole entry, looked up, species assumed): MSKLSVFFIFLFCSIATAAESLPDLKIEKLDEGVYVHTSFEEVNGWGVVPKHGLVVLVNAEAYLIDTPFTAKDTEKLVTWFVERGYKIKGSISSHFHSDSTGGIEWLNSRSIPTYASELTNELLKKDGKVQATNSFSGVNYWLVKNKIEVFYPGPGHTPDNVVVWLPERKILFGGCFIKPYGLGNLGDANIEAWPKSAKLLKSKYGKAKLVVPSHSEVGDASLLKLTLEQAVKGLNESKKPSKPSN

Structure (SMILES)	MB9799 MITC95 P. aeruginosa uM Efflux Mutant [1] [µM]	MB9798 MITC95 P. aeruginosa uM Efflux WT [2] [µM]	Efflux ratio [2]	CL5741 S. marcescens MITC95 IMP [3] [µM]	IHMA599644 K. pneumoniae MITC95 VIM [4] [µM]	CLB30016 E. coli MITC95 NDM [5] [µM]	IC50 (NDM-1) [nM]	IC50 (VIM-1) [nM]	IC50 (IMP-1) [nM]	IC50 (VIM-2) [nM]
NC[C@@H](O)CNS(=O)(=O)c1ccc(N2CC[C@H](CN)[C@@H](F)C2)c(-c2nn[nH]n2)c1S(N)(=O)=O (stereo in doubt) [Example 13, N^1—((R)-3-amino-2-hydroxypropyl)-4-(trans-4-(aminomethyl)-3-fluoropiperidin-1-yl)-3-(2H-tetrazol-5-yl)benzene-1,2-disulfonamide]	0.39	0.78	2.00	0.78	0.78	1.56	3.01	0.14	3.7	4.12
NC[C@@H](O)CNS(=O)(=O)c1ccc(N2CC[C@@H](N)[C@H](F)C2)c(-c2nn[nH]n2)c1S(N)(=O)=O [Example 2]	0.78	0.78	1.00	0.78	0.78	0.20	6.51	0.17	3.37	4.04
NC[C@@H](O)CNS(=O)(=O)c1ccc(N2CCC(F)(CN)CC2)c(-c2nn[nH]n2)c1S(N)(=O)=O [Example 3]	0.39	0.78	2.00	1.56	0.78	0.78	2.43	0.61	3.95	3.68
CC1CC(CN)CCN1c1ccc(S(=O)(=O)NC[C@H](O)CN)c(S(N)(=O)=O)c1-c1nn[nH]n1 (stereo partly drawn) [Example 4, N1-((R)-3-amino-2-hydroxypropyl)-4-(4-(aminomethyl)-2-methylpiperidin-1-yl)-3-(2H-tetrazol-5-yl)benzene-1,2-disulfonamide]	0.78	1.56	2.00	1.56	3.13	3.13	2.17	0.18	9.4	2.4
NC[C@@H](O)CNS(=O)(=O)c1ccc(N2CC[C@H](CN)[C@H](O)C2)c(-c2nn[nH]n2)c1S(N)(=O)=O [Example 9, N^1—((R)-3-amino-2-hydroxypropyl)-4-(cis-4-(aminomethyl)-3-hydroxypiperidin-1-yl)-3-(2H-tetrazol-5-yl)benzene-1,2-disulfonamide]	0.78	1.56	2.00	0.78	1.56	0.39	3.46	0.26	15.5	6.41
NC[C@@H](O)CNS(=O)(=O)c1ccc(N2CC[C@H](CN)[C@@H](O)C2)c(-c2nn[nH]n2)c1S(N)(=O)=O [Example 10]	0.78	3.13	4.00	0.39	1.56	0.39	16.4	0.43	28.9	27
NC[C@@H](O)CNS(=O)(=O)c1ccc(N2C[C@@H]3[C@@H](CN)[C@@H]3C2)c(-c2nn[nH]n2)c1S(N)(=O)=O [Example 11]	1.56	6.25	4.00	1.56	0.78	0.78	8.96	2.03	35.5	24.7
NC[C@@H](O)CNS(=O)(=O)c1ccc(N2CCC3(CC2)CC3N)c(-c2nn[nH]n2)c1S(N)(=O)=O (some centres unmarked) [Example 12]	0.78	1.56	2.00	1.56	1.56	0.78	1.51	1.48	4.08	17.6
NCCC1CCN(c2ccc(S(=O)(=O)N[C@@H]3CCNC3)c(S(N)(=O)=O)c2-c2nn[nH]n2)CC1 [Example 16, (R)-4-(4-(2-aminoethyl)piperidin-1-yl)-N^1-(pyrrolidin-3-yl)-3-(2H-tetrazol-5-yl)benzene-1,2-disulfonamide]	0.78	0.78	1.00	1.56	1.56	1.17	0.72	0.08	1.85	1.61
NCCNS(=O)(=O)c1ccc(N2CCC(O)(CN)CC2)c(-c2nn[nH]n2)c1S(N)(=O)=O [Example 17]	0.78	1.56	2.00	0.78	1.56	0.78	17	15.1	26.9	64.6
C[C@@H](CN)NS(=O)(=O)c1ccc(N2CCC(O)(CN)CC2)c(-c2nn[nH]n2)c1S(N)(=O)=O [Example 18, (S)-4-(4-(aminomethyl)-4-hydroxypiperidin-1-yl)-N1-(1-aminopropan-2-yl)-3-(2H-tetrazol-5-yl)benzene-1,2-disulfonamide]	0.78	0.78	1.00	0.78	1.56	0.78	0.43	0.65	1.48	4.8
